Entries after “also recorded” stand apart in the source; their conditions may differ. No end group written: not given here.
Tests used:
[1] = system: patients with Ragweed Hay Fever; assay: double-blind placebo-controlled phase II study, patient-diary hay fever symptom counts; assay type: in vivo, human; details: for Average # Weekly Symptoms, Severe / Average # Weekly Symptoms, Total / Average # Weekly Symptoms, Mild: average per subject over weeks 3-12; for hay fever symptoms compared with placebo group (in words): 12 weeks
Text: Each group was given a subcutaneous injection three times a week and an intravenous injection once a week; in the first group the first injection was thymopentin while the second was placebo, in the second group the first injection was placebo and the second thymopentin, while in the third group both injections were placebo. […] The application of the present invention is illustrated by the clinical study on thymopentin in the treatment of patients with Ragweed Hay Fever given in the Example which follows. Thirty (30) patients with a proven history of ragweed hay fever, who fulfill all of the inclusion criteria and none of the exclusion criteria, were enrolled in this single site study. This invention was a placebo-controlled phase II safety and efficacy study of Thymopentin (TP5) in the treatment of patients with Ragwood Hay Fever. Thirty (30) patients were assigned to either TP5 or placebo according to a double blind randomization schedule. Ten (10) patients were assigned to each of three (3) treatment groups described as follows. Group 1 received 1.0 ml TP5 (50 mg/ml) subcutaneously three (3) times per week and 5.0 ml placebo intravenously once weekly for twelve (12) weeks. Group 2 received 1.0 ml placebo subcutaneously three (3) times per week and 5.0 ml TP5 (20 mg/ml) intravenously once weekly for twelve (12) weeks. Group 3 received 1.0 ml placebo subcutaneously three (3) times per week and 5.0 ml placebo intravenously once weekly for twelve (12) weeks. 1. Each patient received subcutaneous injections three (3) times per week and one intravenous injection per week for twelve weeks, according to the group randomization schedule described above. 2. All patients received a diary in which allergy medication (chlortrimeton) taken during the course of the study and symptoms related to Ragweed Hay Fever were documented. Patients received specific instructions pertaining to continued maintenance of their symptom and medication diaries. The diaries were reviewed weekly and returned upon termination of treatment. Each of the thirty subjects recorded twice daily the occurrence of five symptoms using the mutually exclusive scores "none", "mild", and "severe". The efficacy of treatment was determined by comparison of the average weekly number of mild and severe symptoms per subject. In one analysis, a score was created for each subject based upon the number of times certain symptoms were noted over the ten-week period of study. Each occurrence of a mild or severe symptom was scored as "1" and the average weekly score over the ten weeks for which data were collected was computed for each subject. Pair-wise comparisons were made among the three groups using a standard t-test. […] A more detailed analysis used a repeated measures analysis of variance, in which the total weekly symptoms were compared on a week-by-week basis. The results are presented in Table II and graphically in FIGS. 1 through 3. This analysis indicates high significance among the three groups with respect to severe symptoms and all symptoms.

[2] = system: T lymphocytes; details: background art; cited from earlier work

RKDVY [TP5, H-ARG-LYS-ASP-VAL-TYR-OH]
Average number of symptoms per week per subject, Cough Mild ([1]; Group 1 (TP5 sc)): 0.14
Average number of symptoms per week per subject, Cough Sev. ([1]; Group 1 (TP5 sc)): 0.02
Average number of symptoms per week per subject, Itchy Eyes Mild ([1]; Group 1 (TP5 sc)): 2.45
Average number of symptoms per week per subject, Itchy Eyes Sev. ([1]; Group 1 (TP5 sc)): 0.18
Average number of symptoms per week per subject, Red Eyes Mild ([1]; Group 1 (TP5 sc)): 1.12
Average number of symptoms per week per subject, Red Eyes Sev. ([1]; Group 1 (TP5 sc)): 0.12
Average number of symptoms per week per subject, Runny Nose Mild ([1]; Group 1 (TP5 sc)): 3.51
Average number of symptoms per week per subject, Runny Nose Sev. ([1]; Group 1 (TP5 sc)): 1.86
Average number of symptoms per week per subject, Sneezing Mild ([1]; Group 1 (TP5 sc)): 2.97
Average number of symptoms per week per subject, Sneezing Sev. ([1]; Group 1 (TP5 sc)): 0.46
Average # Weekly Symptoms, Severe ([1]; Group 1, TP5 50 mg s.c. 3x/week, p vs placebo .1382): 2.64
Average # Weekly Symptoms, Total ([1]; Group 1, TP5 50 mg s.c. 3x/week, p vs placebo .1394): 12.84
Average # Weekly Symptoms, Mild ([1]; Group 1, TP5 50 mg s.c. 3x/week, p vs placebo .3059): 10.20
hay fever symptoms compared with placebo group (in words) ([1]; Group 1, thymopentin 50 mg subcutaneously three times per week, listed as Thymopentin): the difference from placebo is not statistically significant; also recorded: decreasing the number of severe hay fever symptoms
hay fever symptoms compared with placebo group (in words) ([1]; Group 1, thymopentin 50 mg subcutaneously three times per week, listed as thymopentin): experienced fewer symptoms than group 3; also recorded: effective regimens to palliate allergic symptoms
Total Mild & Severe Symptoms Combined, average weekly number ([1]; Group 1 TP5 s.c., week 3): 5.78
Total Mild Symptoms, average weekly number ([1]; Group 1 TP5 s.c., week 3): 5.22
Total Severe Symptoms, average weekly number ([1]; Group 1 TP5 s.c., week 3): 0.56
Total Mild & Severe Symptoms Combined, average weekly number ([1]; Group 1 TP5 s.c., week 4): 9.22
Total Mild Symptoms, average weekly number ([1]; Group 1 TP5 s.c., week 4): 8.11
Total Severe Symptoms, average weekly number ([1]; Group 1 TP5 s.c., week 4): 1.11
Total Mild & Severe Symptoms Combined, average weekly number ([1]; Group 1 TP5 s.c., week 5): 9.78
Total Mild Symptoms, average weekly number ([1]; Group 1 TP5 s.c., week 5): 9.00
Total Severe Symptoms, average weekly number ([1]; Group 1 TP5 s.c., week 5): 0.78
Total Mild & Severe Symptoms Combined, average weekly number ([1]; Group 1 TP5 s.c., week 6): 11.56
Total Mild Symptoms, average weekly number ([1]; Group 1 TP5 s.c., week 6): 10.11
Total Severe Symptoms, average weekly number ([1]; Group 1 TP5 s.c., week 6): 1.44
Total Mild & Severe Symptoms Combined, average weekly number ([1]; Group 1 TP5 s.c., week 7): 14.44
Total Mild Symptoms, average weekly number ([1]; Group 1 TP5 s.c., week 7): 13.11
Total Severe Symptoms, average weekly number ([1]; Group 1 TP5 s.c., week 7): 1.33
Total Mild & Severe Symptoms Combined, average weekly number ([1]; Group 1 TP5 s.c., week 8): 16.33
Total Mild Symptoms, average weekly number ([1]; Group 1 TP5 s.c., week 8): 14.44
Total Severe Symptoms, average weekly number ([1]; Group 1 TP5 s.c., week 8): 1.89
Total Mild & Severe Symptoms Combined, average weekly number ([1]; Group 1 TP5 s.c., week 9): 19.67
Total Mild Symptoms, average weekly number ([1]; Group 1 TP5 s.c., week 9): 18.56
Total Severe Symptoms, average weekly number ([1]; Group 1 TP5 s.c., week 9): 1.11
Total Mild & Severe Symptoms Combined, average weekly number ([1]; Group 1 TP5 s.c., week 10): 17.78
Total Mild Symptoms, average weekly number ([1]; Group 1 TP5 s.c., week 10): 15.22
Total Severe Symptoms, average weekly number ([1]; Group 1 TP5 s.c., week 10): 2.56
Total Mild & Severe Symptoms Combined, average weekly number ([1]; Group 1 TP5 s.c., week 11): 16.89
Total Mild Symptoms, average weekly number ([1]; Group 1 TP5 s.c., week 11): 13.11
Total Severe Symptoms, average weekly number ([1]; Group 1 TP5 s.c., week 11): 3.78
Total Mild & Severe Symptoms Combined, average weekly number ([1]; Group 1 TP5 s.c., week 12): 5.89
Total Mild Symptoms, average weekly number ([1]; Group 1 TP5 s.c., week 12): 5.67
Total Severe Symptoms, average weekly number ([1]; Group 1 TP5 s.c., week 12): 0.22
Average number of symptoms per week per subject, Cough Mild ([1]; Group 2 (TP5 iv)): 0.48
Average number of symptoms per week per subject, Cough Sev. ([1]; Group 2 (TP5 iv)): 0.03
Average number of symptoms per week per subject, Itchy Eyes Mild ([1]; Group 2 (TP5 iv)): 0.84
Average number of symptoms per week per subject, Itchy Eyes Sev. ([1]; Group 2 (TP5 iv)): 0.25
Average number of symptoms per week per subject, Red Eyes Mild ([1]; Group 2 (TP5 iv)): 0.75
Average number of symptoms per week per subject, Red Eyes Sev. ([1]; Group 2 (TP5 iv)): 0.08
Average number of symptoms per week per subject, Runny Nose Mild ([1]; Group 2 (TP5 iv)): 3.03
Average number of symptoms per week per subject, Runny Nose Sev. ([1]; Group 2 (TP5 iv)): 0.80
Average number of symptoms per week per subject, Sneezing Mild ([1]; Group 2 (TP5 iv)): 2.33
Average number of symptoms per week per subject, Sneezing Sev. ([1]; Group 2 (TP5 iv)): 0.61
Average # Weekly Symptoms, Total ([1]; Group 2, TP5 100 mg i.v. once weekly, p vs placebo .0145): 9.20
Average # Weekly Symptoms, Severe ([1]; Group 2, TP5 100 mg i.v. once weekly, p vs placebo .0232): 1.77
Average # Weekly Symptoms, Mild ([1]; Group 2, TP5 100 mg i.v. once weekly, p vs placebo .0257): 7.43
hay fever symptoms compared with placebo group (in words) ([1]; Group 2, thymopentin 100 mg intravenously once per week, listed as Thymopentin): statistically significant difference from group 3; also recorded: decreasing the number of severe hay fever symptoms
hay fever symptoms compared with placebo group (in words) ([1]; Group 2, thymopentin 100 mg intravenously once per week, listed as thymopentin): This difference was statistically significant for group 2; also recorded: effective regimens to palliate allergic symptoms
Total Mild & Severe Symptoms Combined, average weekly number ([1]; Group 2 TP5 i.v., week 3): 5.43
Total Mild Symptoms, average weekly number ([1]; Group 2 TP5 i.v., week 3): 4.43
Total Severe Symptoms, average weekly number ([1]; Group 2 TP5 i.v., week 3): 1.0
Total Mild & Severe Symptoms Combined, average weekly number ([1]; Group 2 TP5 i.v., week 4): 8.86
Total Mild Symptoms, average weekly number ([1]; Group 2 TP5 i.v., week 4): 8.43
Total Severe Symptoms, average weekly number ([1]; Group 2 TP5 i.v., week 4): 0.43
Total Mild & Severe Symptoms Combined, average weekly number ([1]; Group 2 TP5 i.v., week 5): 7.00
Total Mild Symptoms, average weekly number ([1]; Group 2 TP5 i.v., week 5): 6.71
Total Severe Symptoms, average weekly number ([1]; Group 2 TP5 i.v., week 5): 0.29
Total Mild & Severe Symptoms Combined, average weekly number ([1]; Group 2 TP5 i.v., week 6): 10.86
Total Mild Symptoms, average weekly number ([1]; Group 2 TP5 i.v., week 6): 9.29
Total Severe Symptoms, average weekly number ([1]; Group 2 TP5 i.v., week 6): 1.57
Total Mild & Severe Symptoms Combined, average weekly number ([1]; Group 2 TP5 i.v., week 7): 9.00
Total Mild Symptoms, average weekly number ([1]; Group 2 TP5 i.v., week 7): 8.00
Total Severe Symptoms, average weekly number ([1]; Group 2 TP5 i.v., week 7): 1.00
Total Mild & Severe Symptoms Combined, average weekly number ([1]; Group 2 TP5 i.v., week 8): 11.00
Total Mild Symptoms, average weekly number ([1]; Group 2 TP5 i.v., week 8): 8.57
Total Severe Symptoms, average weekly number ([1]; Group 2 TP5 i.v., week 8): 2.43
Total Mild & Severe Symptoms Combined, average weekly number ([1]; Group 2 TP5 i.v., week 9): 8.14
Total Mild Symptoms, average weekly number ([1]; Group 2 TP5 i.v., week 9): 7.71
Total Severe Symptoms, average weekly number ([1]; Group 2 TP5 i.v., week 9): 0.43
Total Mild & Severe Symptoms Combined, average weekly number ([1]; Group 2 TP5 i.v., week 10): 5.14
Total Mild Symptoms, average weekly number ([1]; Group 2 TP5 i.v., week 10): 4.71
Total Severe Symptoms, average weekly number ([1]; Group 2 TP5 i.v., week 10): 0.43
Total Mild & Severe Symptoms Combined, average weekly number ([1]; Group 2 TP5 i.v., week 11): 5.43
Total Mild Symptoms, average weekly number ([1]; Group 2 TP5 i.v., week 11): 5.14
Total Severe Symptoms, average weekly number ([1]; Group 2 TP5 i.v., week 11): 0.29
Total Mild & Severe Symptoms Combined, average weekly number ([1]; Group 2 TP5 i.v., week 12): 1.71
Total Mild Symptoms, average weekly number ([1]; Group 2 TP5 i.v., week 12): 1.57
Total Severe Symptoms, average weekly number ([1]; Group 2 TP5 i.v., week 12): 0.14
alleviating the symptoms of allergic rhinitis compared to placebo (in words) ([1]; double-blind study, route not specified): statistically significant compared to placebo
safety (in words) ([1]; general statement): very safe drug
differentiation of T lymphocytes (in words) [2]: selectively stimulate the differentiation of T lymphocytes
